Legend:
[1] = system: liver-cholesterol synthesis; assay: Rat single-dose liver-cholesterol synthesis inhibitory effect; type: in vivo; conditions: Wistar male rats, 3 mg/kg orally, 14C-mevalonic acid i.p. one hour later, liver taken one hour after that, relative to control group
Method: 2. Rat Single-Dose Liver-Cholesterol Synthesis Inhibitory Effect
A rat single-dose liver-cholesterol synthesis inhibitory effect was measured as described below.
To each the compounds of the present invention was added a necessary amount of a 0.5% methyl cellulose solution immediately before use. Then, an equivalent molar amount of sodium hydroxide or sodium hydrogen carbonate was added to dissolve or suspend it in the resulting solution. To 6-week-old Wistar male rats were orally administered each of the compounds of the present invention (3 mg/kg), while only a 0.5% methyl cellulose solution was administered to a control group. One hour later, physiological saline of mevalonic acid (5 μCi/5 mL/kg) labeled with a radioisotope ^14C was intraperitoneally administered. The rats were sacrificed one hour later. To 1 g of the liver thus obtained from the rats was added 5 mL of a 15% KOH ethanol solution and the resulting mixture was left to stand for 15 hours. After heating at 75° C. for 2 hours, the reaction mixture was extracted with 5 mL of water and 10 mL of petroleum ether. The petroleum ether layer was collected, evaporated to dryness and then dissolved in 50 μl of a chloroform:acetone=2:1 solution. The cholesterol band was separated by silica gel thin layer chromatography (Art.5748, toluene:ethyl acetate=3:1) and cut out. It was put in a vial container, followed by the addition of 10 mL of Aquasol-2 (product of Packard BioScience Company). The radioactivity was measured using a liquid scintillation counter. A ratio of the radioactivity relative to that of a control group was determined and liver-cholesterol synthesis inhibitory activity (%) was calculated.

rat squalene synthetase = target: T1, rat squalene synthetase (Rattus norvegicus, UniProt Q02769); assay: Rat squalene synthetase inhibitory activity (rat liver microsomal fraction, [3H]farnesyl-pyrophosphate); type: biochemical; conditions: rat liver microsomal fraction 30 μg/mL, 5 μM [3H]farnesyl-pyrophosphate, 37° C., 20 minutes; read-out: IC50 (squalene synthetase inhibitory activity: concentration inhibiting 50% of radioactivity incorporated into squalene)
T1 construct: the final sediment thus obtained was used as a microsomal fraction for the measurement of enzymatic activity; from tissue; host or cells: liver of eight-week-old SD male rats, washed 105,000 x g microsomal fraction
T1 sequence (Q02769 1-416): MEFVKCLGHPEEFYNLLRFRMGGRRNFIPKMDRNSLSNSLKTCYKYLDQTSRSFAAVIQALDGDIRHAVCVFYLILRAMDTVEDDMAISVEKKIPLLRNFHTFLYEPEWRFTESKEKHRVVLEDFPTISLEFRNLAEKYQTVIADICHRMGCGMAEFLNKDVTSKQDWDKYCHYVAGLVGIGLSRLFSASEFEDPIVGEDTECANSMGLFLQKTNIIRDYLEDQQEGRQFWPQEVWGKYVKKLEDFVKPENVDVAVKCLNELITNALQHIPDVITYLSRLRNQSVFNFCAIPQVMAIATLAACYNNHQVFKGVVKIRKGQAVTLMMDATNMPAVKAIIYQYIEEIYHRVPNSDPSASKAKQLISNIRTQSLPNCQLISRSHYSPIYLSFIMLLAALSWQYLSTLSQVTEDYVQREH
Method: 1. Rat Squalene Synthetase Inhibitory Activity
(1) Preparation of Enzyme Source
As an enzyme source, a microsomal fraction prepared from a rat liver was employed. First, eight-week-old SD male rats were subjected to laparotomy under anesthesia with pentobarbital sodium. […] To the liver thus obtained were added 0.3M sucrose, 1 mM dithiothreitol (DTT), 1 mM sodium ethylenediamine tetraacetate (EDTA) and various protease inhibitors. The resulting mixture was homogenized in the presence of a 10 mM phosphate buffer adjusted to pH 7.4 and centrifuged for 5 minutes at 2,000×g and for 15 minutes at 10,000×g. As the protease inhibitor, phenylmethanesulfonyl fluoride (PMSF), leupeptin and aprotinin were added to give the final concentrations of 1 mM, 10 μM, and 5 μg/mL, respectively. The supernatant after centrifugation was centrifuged further at 105,000×g for 60 minutes. The sediment thus obtained was suspended in a 10 mM phosphate buffer (pH 7.4) containing 1 mM DTT, 1 mM EDTA, and the above-described protease inhibitors and the resulting suspension was centrifuged at 105,000×g for 30 minutes, which operation was performed twice. After washing, the final sediment thus obtained was used as a microsomal fraction for the measurement of enzymatic activity.
(2) Measurement of Squalene Synthetase Inhibitory Activity
Squalene synthetase activity was measured in accordance with the method of Schechter, et al., described in Journal of Biological Chemistry, 267, 8628-8635 (1992). Described specifically, the compound of the present invention dissolved in water or dimethylsulfoxide (DMSO) was added to an enzyme reaction mixture (total amount: 50 μl) containing 5 mM reduced nicotinamide adenine dinucleotide phosphate (NADPH), 5 mM 3-[(3-cholamidopropyl)dimethylammonio]propanesulfonic acid (CHAPS), 10 mM potassium fluoride, 10 mM magnesium chloride, 10 mM DTT, 1 μM/mL NB-598 (squalene epoxydase inhibitor, Journal of Biological Chemistry, 265, 18075-180788 (1990)), 50 mM HEPES buffer (pH 7.4)), 30 μg/mL of the rat liver microsomal fraction, and 5 μM [^3H] farnesyl-pyrophosphate and the resulting mixture was reacted at 37° C. for 20 minutes (enzyme reaction was started by adding [^3H]farnesyl-pyrophosphate to the enzyme reaction mixture which had been incubated in advance at 37° C. for 10 minutes). To the enzyme reaction mixture was added 5 μl of 1M EDTA (pH 9.2) to terminate the enzyme reaction, followed by the addition of 5 μl of a 0.5% squalene ethanol solution. After spotting of a 40 μl portion of the resulting mixture on a plastic sheet for thin layer chromatography, development with 5% toluene-95% hexane and drying, these pots were visualized by exposure to iodine vapor and the band of squalene was identified. The spots were cut out with scissors and put in a vial container. To the container was added 10 mL of Aquasol-2 (product of New England Nuclear Research Products, USA) and radioactivity was measured by a liquid scintillation counter. The squalene synthetase inhibitory activity was expressed as a concentration (IC50) of the compound inhibiting 50% of radioactivity incorporated into squalene.

Structure (SMILES) | IC50 (rat squalene synthetase) [nM] | Liver-cholesterol synthesis inhibitory effect [1] [%]
COc1cccc([C@H]2O[C@H](Cc3ncc(CCC(=O)O)s3)c3nnc(C(F)(F)F)n3-c3ccc(Cl)cc32)c1OC (relative stereo) [Example 322, 3-({2-[(trans)-8-Chloro-6-(2,3-dimethoxyphenyl)-1-(trifluoromethyl)-4H,6H-[1,2,4]triazolo[4,3-a][4,1]benzoxazepin-4-yl]methyl}-1,3-thiazol-5-yl)propanoic Acid] | 4.6 | 76
COc1cccc([C@H]2O[C@H](CCn3nnc(CC(=O)O)n3)c3cccn3-c3c(F)cc(Cl)cc32)c1OC [Example 21, 2-(2-{2-[(4R,6S)-8-Chloro-6-(2,3-dimethoxyphenyl)-10-fluoro-4H,6H-pyrrolo[1,2-a][4,1]benzoxazepin-4-yl]ethyl}-2H-1,2,3,4-tetrazol-5-yl)acetic Acid] |  | 68
COc1cccc([C@H]2O[C@H](CCn3cc(C(=O)O)cn3)c3nccn3-c3ccc(Cl)cc32)c1OC [Example 263, 1-{2-[(4R,6S)-8-Chloro-6-(2,3-dimethoxyphenyl)-4H,6H-imidazo[1,2-a][4,1]benzoxazepin-4-yl]ethyl}-1H-pyrazole-4-carboxylic Acid] | 3.9 | 84
COc1cccc(C2SC(CC(=O)N3CCC(CC(=O)O)CC3)c3nnc(C(F)(F)F)n3-c3ccc(Cl)cc32)c1OC (single isomer, unassigned) [Example 343, 2-(1-{2-[8-Chloro-6-(2,3-dimethoxyphenyl)-1-(trifluoromethyl)-4H,6H-[1,2,4]triazolo[4,3-a][4,1]benzothiazepin-4-yl]acetyl}-4-piperidinyl)acetic Acid] | 7.6 | 80
O=C(O)CC1CCN(C(=O)CC2OC(c3cccc4ccccc34)c3cc(Cl)ccc3-n3cccc32)CC1 (stereo not drawn) [Example 210, 2-(1-{2-[8-Chloro-6-(1-naphthyl)-4H,6H-pyrrolo[1,2-a][4,1]benzoxazepin-4-yl]acetyl}-4-piperidinyl)acetic Acid] | 0.56 | 

Now from value to compound, other results behind:

IC50 (rat squalene synthetase) [nM] | Structure (SMILES) | Liver-cholesterol synthesis inhibitory effect [1] [%]
4.9 | COC(=O)CCc1cnc(C[C@H]2S[C@H](c3cccc(OC)c3OC)c3cc(Cl)ccc3-n3c2nnc3C(F)(F)F)s1 (relative stereo) [Example 330, Methyl 3-({2-[(trans)-8-chloro-6-(2,3-dimethoxyphenyl)-1-(trifluoromethyl)-4H,6H-[1,2,4]triazolo[4,3-a][4,1]benzothiazepin-4-yl]methyl}-1,3-thiazol-5-yl)propanoate] | 75
4.6 | COc1cccc(C2SC(CC(=O)O)c3nnc(C(F)(F)F)n3-c3ccc(Cl)cc32)c1OC (stereo not drawn) [Example 341, 2-[8-Chloro-6-(2,3-dimethoxyphenyl)-1-(trifluoromethyl)-4H,6H-[1,2,4]triazolo[4,3-a][4,1]benzothiazepin-4-yl]acetic Acid] | 90

From patent publication US20090181942A1, “TRICYCLIC COMPOUNDS” (DAIICHI SANKYO COMPANY, LIMITED, priority 2005, published 2009)
